ChEMBL document CHEMBL3885861, “Open TG-GATES”

Organism: Rattus norvegicus
Test: Open TG-GATES - Regimen: Daily Repeat
Format: toxicity, organism-based, Sprague-Dawley
Parameters: regimen Daily Repeat, gender Male, age 6 weeks
Settings: in vivo, po, 1000 mg/kg, route gavage, dose level High; for APTT / Bas / Eos / Fbg / Hb / Ht / Lym / MCH / MCHC / MCV / Mono / Neu / PT / Plat / RBC / Ret / WBC: tissue Blood; for KIDNEY_L / KIDNEY_R / KIDNEY_TOTAL: tissue Kidney; for LIVER: tissue Liver; for A/G / ALP / ALT / AST / BUN / CRE / Ca / Cl / DBIL / GLC / IP / K / LDH / Na / PL / RALB / TBIL / TC / TG / TP / gamma-GTP: tissue Plasma

SMILES: CC(=O)[C@@]1(O)CC[C@H]2[C@@H]3C=C(Cl)C4=CC(=O)CC[C@]4(C)[C@H]3CC[C@@]21C [CHLORMADINONE]
- TERMINAL_BW (72 h, time 3 day): 236.9 g
- APTT (72 h, time 3 day): 28 s
- Bas (72 h, time 3 day): 0%
- Eos (72 h, time 3 day): 1.2%
- Fbg (72 h, time 3 day): 321.4 mg/dL
- Hb (72 h, time 3 day): 13.9 g/dL
- Ht (72 h, time 3 day): 42%
- Lym (72 h, time 3 day): 76.8%
- MCH (72 h, time 3 day): 20.2 pg
- MCHC (72 h, time 3 day): 33.1%
- MCV (72 h, time 3 day): 61 fL
- Mono (72 h, time 3 day): 3%
- Neu (72 h, time 3 day): 18.2%
- PT (72 h, time 3 day): 14.4 s
- Plat (72 h, time 3 day): 126.4 x10_4/uL
- RBC (72 h, time 3 day): 690 x10_4/ul
- Ret (72 h, time 3 day): 6.9%
- WBC (72 h, time 3 day): 122 x10_2/uL
- KIDNEY_L (72 h, time 3 day): 1 g
- KIDNEY_R (72 h, time 3 day): 1 g
- KIDNEY_TOTAL (72 h, time 3 day): 2 g
- LIVER (72 h, time 3 day): 12.4 g
- A/G (72 h, time 3 day): 1.2
- ALP (72 h, time 3 day): 1434.6 IU/L
- ALT (72 h, time 3 day): 53 IU/L
- AST (72 h, time 3 day): 71 IU/L
- BUN (72 h, time 3 day): 17.4 mg/dL
- CRE (72 h, time 3 day): 0.2 mg/dL
- Ca (72 h, time 3 day): 11 mg/dL
- Cl (72 h, time 3 day): 105.2 meq/L
- DBIL (72 h, time 3 day): 0 mg/dL
- GLC (72 h, time 3 day): 191.8 mg/dL
- IP (72 h, time 3 day): 7.7 mg/dL
- K (72 h, time 3 day): 4.8 meq/L
- LDH (72 h, time 3 day): 190.2 IU/L
- Na (72 h, time 3 day): 140.4 meq/L
- PL (72 h, time 3 day): 198.4 mg/dL
- RALB (72 h, time 3 day): 3.3 g/dL
- TBIL (72 h, time 3 day): 0.004 mg/dL
- TC (72 h, time 3 day): 95.2 mg/dL
- TG (72 h, time 3 day): 154.2 mg/dL
- TP (72 h, time 3 day): 6 g/dL
- gamma-GTP (72 h, time 3 day): 2 IU/L
- TERMINAL_BW ([…], time 7 day): 245 g
- TERMINAL_BW ([…], time 14 day): 286.4 g
- TERMINAL_BW ([…], time 28 day): 342.2 g
- APTT ([…], time 7 day): 30 s
- Bas ([…], time 7 day): 0%
- Eos ([…], time 7 day): 0.8%
- Fbg ([…], time 7 day): 327.6 mg/dL
- Hb ([…], time 7 day): 15.1 g/dL
- Ht ([…], time 7 day): 44.5%
- Lym ([…], time 7 day): 84.4%
- MCH ([…], time 7 day): 20.2 pg
- MCHC ([…], time 7 day): 34%
- MCV ([…], time 7 day): 59.5 fL
- Mono ([…], time 7 day): 2.2%
- Neu ([…], time 7 day): 11.8%
- PT ([…], time 7 day): 15 s
- Plat ([…], time 7 day): 127.9 x10_4/uL
- RBC ([…], time 7 day): 748.8 x10_4/ul
- Ret ([…], time 7 day): 3.8%
- WBC ([…], time 7 day): 120.3 x10_2/uL
- APTT ([…], time 14 day): 28.9 s
- Bas ([…], time 14 day): 0%
- Eos ([…], time 14 day): 1%
- Fbg ([…], time 14 day): 322 mg/dL
- Hb ([…], time 14 day): 15.2 g/dL
- Ht ([…], time 14 day): 45%
- Lym ([…], time 14 day): 80%
- MCH ([…], time 14 day): 19.7 pg
- MCHC ([…], time 14 day): 33.9%
- MCV ([…], time 14 day): 58.1 fL
- Mono ([…], time 14 day): 2.8%
- Neu ([…], time 14 day): 14.4%
- PT ([…], time 14 day): 14.7 s
- Plat ([…], time 14 day): 100.3 x10_4/uL
- RBC ([…], time 14 day): 774.6 x10_4/ul
- Ret ([…], time 14 day): 2.6%
- WBC ([…], time 14 day): 106.2 x10_2/uL
- APTT ([…], time 28 day): 29.7 s
- Bas ([…], time 28 day): 0%
- Eos ([…], time 28 day): 1%
- Fbg ([…], time 28 day): 308 mg/dL
- Hb ([…], time 28 day): 15.8 g/dL
- Ht ([…], time 28 day): 45.5%
- Lym ([…], time 28 day): 86.4%
- MCH ([…], time 28 day): 18.2 pg
- MCHC ([…], time 28 day): 34.9%
- MCV ([…], time 28 day): 52.1 fL
- Mono ([…], time 28 day): 2.2%
- Neu ([…], time 28 day): 9.6%
- PT ([…], time 28 day): 15.1 s
- Plat ([…], time 28 day): 91.7 x10_4/uL
- RBC ([…], time 28 day): 873 x10_4/ul
- Ret ([…], time 28 day): 1.9%
- WBC ([…], time 28 day): 94.9 x10_2/uL
- KIDNEY_L ([…], time 7 day): 1 g
- KIDNEY_R ([…], time 7 day): 1 g
- KIDNEY_TOTAL ([…], time 7 day): 1.9 g
- KIDNEY_L ([…], time 14 day): 1.1 g
- KIDNEY_R ([…], time 14 day): 1.1 g
- KIDNEY_TOTAL ([…], time 14 day): 2.2 g
- KIDNEY_L ([…], time 28 day): 1.2 g
- KIDNEY_R ([…], time 28 day): 1.3 g
- KIDNEY_TOTAL ([…], time 28 day): 2.5 g
- LIVER ([…], time 7 day): 11 g
- LIVER ([…], time 14 day): 13.1 g
- LIVER ([…], time 28 day): 14.6 g
- A/G ([…], time 7 day): 1.3
- ALP ([…], time 7 day): 1456.8 IU/L
- ALT ([…], time 7 day): 45.8 IU/L
- AST ([…], time 7 day): 71.4 IU/L
- BUN ([…], time 7 day): 19.6 mg/dL
- CRE ([…], time 7 day): 0.2 mg/dL
- Ca ([…], time 7 day): 10.8 mg/dL
- Cl ([…], time 7 day): 106.8 meq/L
- DBIL ([…], time 7 day): 0 mg/dL
- GLC ([…], time 7 day): 187.2 mg/dL
- IP ([…], time 7 day): 7.2 mg/dL
- K ([…], time 7 day): 4.6 meq/L
- LDH ([…], time 7 day): 194 IU/L
- Na ([…], time 7 day): 140 meq/L
- PL ([…], time 7 day): 163.8 mg/dL
- RALB ([…], time 7 day): 3.3 g/dL
- TBIL ([…], time 7 day): 0.006 mg/dL
- TC ([…], time 7 day): 83.2 mg/dL
- TG ([…], time 7 day): 136 mg/dL
- TP ([…], time 7 day): 6 g/dL
- gamma-GTP ([…], time 7 day): 2 IU/L
- A/G ([…], time 14 day): 1.2
- ALP ([…], time 14 day): 1187.6 IU/L
- ALT ([…], time 14 day): 45.2 IU/L
- AST ([…], time 14 day): 71.2 IU/L
- BUN ([…], time 14 day): 18.6 mg/dL
- CRE ([…], time 14 day): 0.2 mg/dL
- Ca ([…], time 14 day): 10.7 mg/dL
- Cl ([…], time 14 day): 107.6 meq/L
- DBIL ([…], time 14 day): 0 mg/dL
- GLC ([…], time 14 day): 195 mg/dL
- IP ([…], time 14 day): 6.8 mg/dL
- K ([…], time 14 day): 4.4 meq/L
- LDH ([…], time 14 day): 160.8 IU/L
- Na ([…], time 14 day): 142 meq/L
- PL ([…], time 14 day): 171.2 mg/dL
- RALB ([…], time 14 day): 3.3 g/dL
- TBIL ([…], time 14 day): 0.004 mg/dL
- TC ([…], time 14 day): 81.2 mg/dL
- TG ([…], time 14 day): 177.4 mg/dL
- TP ([…], time 14 day): 6.1 g/dL
- gamma-GTP ([…], time 14 day): 2 IU/L
- A/G ([…], time 28 day): 1
- ALP ([…], time 28 day): 1076 IU/L
- ALT ([…], time 28 day): 58.4 IU/L
- AST ([…], time 28 day): 70.8 IU/L
- BUN ([…], time 28 day): 17.4 mg/dL
- CRE ([…], time 28 day): 0.2 mg/dL
- Ca ([…], time 28 day): 10.5 mg/dL
- Cl ([…], time 28 day): 105.2 meq/L
- DBIL ([…], time 28 day): 0 mg/dL
- GLC ([…], time 28 day): 194.8 mg/dL
- IP ([…], time 28 day): 6.1 mg/dL
- K ([…], time 28 day): 3.9 meq/L
- LDH ([…], time 28 day): 156 IU/L
- Na ([…], time 28 day): 142 meq/L
- PL ([…], time 28 day): 190.4 mg/dL
- RALB ([…], time 28 day): 3.4 g/dL
- TBIL ([…], time 28 day): 0.006 mg/dL
- TC ([…], time 28 day): 97.6 mg/dL
- TG ([…], time 28 day): 161.6 mg/dL
- TP ([…], time 28 day): 6.6 g/dL
- gamma-GTP ([…], time 28 day): 2.6 IU/L
